Measurements as given in patent publication EP0099121A2, “Pharmaceutical compositions” (Bristol-Myers Company, priority 1982, dated 1984).

What follows are compounds tested on Gastric Acid Output (assay: Gastric antisecretory activity in the Gastric Fistula Rat (Table 2 title: Two-Hour Pylorus Ligated Rat)). Conditions: Rattus norvegicus, ip; Route of Administration i.p.; numbers in parentheses are the 95% confidence limits; read-out: ED50.
Format: in vivo, Long Evans rats
Method: Male Long Evans rats weighing about 240-260 grams at the time of cannula implantation are used. The design and implantation of the stainless steel cannula into the anterior wall of the fore-stomach are carried out essentially as described by Pare et al. [Laboratory Animal Science, 27, 244 (1977)]. The fistula components are designed and the operative procedure is carried out exactly as described in the above reference. Post operatively the animals are individually housed in solid bottom cages with sawdust and are allowed food and water ad libitum throughout the entire recovery period. Animals are not used for test purposes for at least 15 days after the operative procedure.
The animals are fasted but allowed water ad libitum for 20 hours before the testing procedure is to begin. Immediately prior to collection, the cannula is opened and the stomach washed gently with 30-40 mL of warm saline or distilled water to remove any residual contents. The catheter is then screwed into the cannula in place of the plugging screw and the rat is placed in a clear plastic rectangular cage measuring 40 cm long, 15 cm wide and 13 cm high. The bottom of the cage has a slit approximately 1.5 cm wide and 25 cm long running down the center to accommodate the catheter which hangs through it. In this way the rat is not restricted and can move freely about the cage during collection periods. The remainder of the assay is carried out as described by Ridley et al. [Research Comm. Chem. Path. Pharm., 17, 365 (1977)].
Gastric secretions collected during the first hour after washing the stomach are discarded as they may be contaminated. For oral evaluation, the catheter is then removed from the cannula and replaced with the plugging screw. Water (2 mL/kg) is administered orally via gastric intubation and the animal is returned to the cage for 45 minutes. After this time the plugging screw is removed and replaced with a catheter to which a small plastic vial has been attached to collect the gastric secretions. A two hour sample is collected (this represents the control secretion), the catheter removed and replaced with the plugging screw. The test drug is now administered orally in a volume of 2 mL/kg via gastric intubation. Forty-five minutes later the plugging screw is again removed, replaced with the catheter attached to a small plastic vial and another 2 hour sample is collected. The secretions in the second sample are compared to those of the control sample in order to determine the effects of the test drug.
When test compounds are to be evaluated parenterally, the animal is injected ip or sc with the test compound vehicle in a volume of 2 mL/kg immediately after discarding the initial 60 minute collection. A two hour sample is collected (control secretion) and the animals are injected either ip or sc with the test compound in a volume of 2 mL/kg. An additional two hour sample is collected and its secretions are compared to those of the control period to determing drug effects.
The samples are centrifuged in a graduated tube for volume determination. Titratable acidity is measured by titrating a one mL sample to pH 7.0 with 0.02N NaOH, using an Autoburet and an electrometric pH meter (Radiometer). Titratable acid output is calculated in microequivalents by multiplying the volume in milliliters by the acid concentration in milliequivalents per liter.
Results are expressed as percent inhibition relative to control readings. Dose response curves are constructed and ED values are calculated by regression analyses. At least three rats are used at each dosage level and a minimum of three dosage levels are utilized for determination of a dose response curve.

Compound	ED50 [µmol/kg]
C#CCNC1=NS(=O)(=O)N=C1NCCSCc1nc[nH]c1C [Example 1, 3-{2-[(5-Methyl-1H-imidazol-4-yl)methylthio}ethylamino}-4-(2-propynyl)amino-1,2,5-thiadiazole 1,1-dioxide]	12.5
Cc1[nH]cnc1CSCCNC1=NS(=O)(=O)N=C1NCCSCc1csc(N=C(N)N)n1 [Example 3, 3-{2-[(2-Guanidinothiazol-4-yl)methylthio]ethylanino}-4-{2-[(5-methyl-1H-imidazol-4-yl)methylthio]ethylamino}-1,2,5-thiadiazole 1,1-dioxide]	0.46
Cc1[nH]cnc1CSCCNC1=NS(=O)(=O)N=C1O [Example 7, 3-Hydroxy-4-{2-[(5-methyl-1H-imidazol-4-yl)methylthio]-ethylamino}-1,2,5-thiadiazole 1,1-dioxide]	31.1
C#CCNC1=NS(=O)(=O)N=C1NCCSCc1csc(N=C(N)N)n1 [Example 32, 3-{2-[(2-Guanidinothiazol-4-yl)methyithio]ethylamino}-4-(2-propynyl)amino-1,2,5-thiadiazole 1,1-dioxide]	0.08

Same assay, conditions: Rattus norvegicus, sc; Route of Administration s.c.; numbers in parentheses are the 95% confidence limits; read-out: ED50

Compound	ED50 [µmol/kg]
CNC1=NS(=O)(=O)N=C1NCCSCc1nc[nH]c1C [Example 2]	~100
C#CCNC1=NS(=O)(=O)N=C1NCCSCc1ccc(CN(C)C)o1 [Example 13, 3-{2-[(5-Dimethylaminomethyl-2-furyl)methvlthio]ethyl-amino}-4-(2-proynyl)amino-1,2,5-thiadiazole 1,1-dioxide]	0.46
C#CCN(C)Cc1ccc(CSCCNC2=NS(=O)(=O)N=C2NC)o1 [Example 14, 3-Methylamino-4-{2-[(5-([N-methyl-N-(2-propynyl)amino]-methyl}-2-furyl)methylthio]ethylamino}-12,5-thiadiazole 1,1-dioxide]	~25
CN(C)Cc1ccc(CSCCNC2=NS(=O)(=O)N=C2O)o1 [Example 17, 3-{2-[(5-Dimethylaminomethyl-2-furyl)methylthio]ethylamino}-4-hydroxy^-1,2,5-thiadiazole 1,1-dioxide]	33
C=CCNC1=NS(=O)(=O)N=C1NCCSCc1ccc(CN(C)C)o1 [Example 19, 3-Allylamino-4-{2-[(5-dimethylaminomethyl-2-furyl)methyl-thio]ethylamino}-1,2,5-thiadiazole 1,1-dioxide]	0.34
CNC1=NS(=O)(=O)N=C1NCCCCc1ccc(CN(C)C)o1 [Example 21, 3-{4-(5-Dimethylaminomethyl-2-furyl)butylamino}-4-methvlamino-1,2,5-thiadiazole 1,1-dioxide]	0.3
CNC1=NS(=O)(=O)N=C1NCCSCc1csc(CN(C)C)n1 [Example 33, 3-{2-[(2-Dimethylaminomethyl-4-thiazolyl)methylthio]ethyl-amino}-4-methylamino-1,2,5-thiadiazole 1,1-dioxide]	0.57
N=C(N)Nc1nc(CSCCNC2=NS(=O)(=O)N=C2NCCO)cs1 [Example 36, 3-{2-[(2-Guanidinothiazol-4-yl)methylthio]ethylamino}-4-(2-hydroxyethylamino)-1,2,5-thiadiazole 1,1-dioxide]	1.59
CN(C)Cc1ccc(CSCCNC2=NS(=O)(=O)N=C2NN)o1 [Example 51]	55
CNC1=NS(=O)(=O)N=C1NCCSCc1ccccn1 [Example 52, 3-Methylamino-4-{2-[(2-pyridyl)methylthio]ethylamino}-1,2,5-thiadiazole 1,1-dioxide]	~350
CCNc1n[s+]([O-])nc1NCCSCc1ccc(CN(C)C)o1 (stereo not shown) [Example 84, 3-{2-[(5-Dimethylaminomethyl-2-furyl)methylthio]ethylartino}-4-ethylamino-1,2,5-thiadiazole 1-oxide]	0.15
CCCNC1=NS(=O)(=O)N=C1NCCSCc1ccc(CN(C)C)o1 [Example 85, 3-{2-[(5-Dimethylaminomethyl-2-furyl)methylthio]ethylamino}-4-propylamino-1,2,5-thiadiazole 1,1-dioxide]	0.14
CN(C)Cc1ccc(CSCCNC2=NS(=O)(=O)N=C2NCc2ccccc2)o1 [Example 89, 3-Benzylamino-4-{2-[(5-dimethylaminomethyl-2-furyl)-methylthio]ethylamino}-1,2,5-thiadiazole 1,1-dioxide]	0.25
CNC1=NS(=O)(=O)N=C1NCCSCc1cccc(CN(C)C)c1 [Example 90, 3-{2-[(3-{Dimethylaminomethyl}phenyl)methylthio]ethylamino}-4-methylamino-1,2,5-thiadiazole 1,1-dioxide]	0.86
CN(C)Cc1cccc(CSCCNc2n[s+]([O-])nc2N)c1 (stereo not shown) [Example 91, 3-Arnino-4-{2-[(3-{dinethylaninomethyl}henyl)methvlthio}-ethvlamino}-1,2,5-thiadiazole 1-oxide]	1.3
CNc1n[s+]([O-])nc1NCCSCc1ccc(CN(C)C)s1 (stereo not shown) [Example 92, 3-{2-[(5-Dimethylaminomethyl-2-thienyl)methylthio]-ethylamino}-4-methylamino-1,2,5-thiadiazole 1-oxide]	0.24
CN(C)Cc1ccc(CCCCNC2=NS(=O)(=O)N=C2N)o1 [Example 93, 3-Amino-4-{4-(5-dimethylaminomethyl-2-furyl)butylamino}-1,2,5-thiaciazole 1,1-dioxide]	0.14
CN(C)Cc1nc(CSCCNC2=NS(=O)(=O)N=C2N)cs1 [Example 94, 3-A-mino-4-{2-[(2-dinethylaminomethyl-4-thiazolyl)methylthio)-ethylamino}-1,2,5-thiadiazole 1,1-dioxide]	0.44
CNC1=NS(=O)(=O)N=C1NCCSCc1cnc(NC(=N)N)s1 [Example 95, 3-{2-[(2-Guanidinothiazol-5-yl)methylthio]ethylamino}-4-methylamino-1,2,5-thiadiazole 1,1-dioxide]	~15
NC(N)=Nc1ncc(CSCCNc2n[s+]([O-])nc2N)s1 (stereo not shown) [Example 96, 3-Psnino-4-{2-[(2-guanidinothiazol-5-yl)methylthio]-ethylamino}-1,2,5-thiadiazole 1-oxide]	~15

Same assay, conditions: Route of Administration s.c.; numbers in parentheses are the 95% confidence limits

Compound	ED50
3-{2-[(5-Dimethylaminomethyl-2-furyl)methy1thio]ethylamino}-4-dodecylamino-1,2,5-thiadiazole 1,1-dioxide [Example 106]	~80 µmol/kg
3-{2-[(5-Dimethylaminomethyl-2-furyl)methylthio]-ethylamino}-4-pieridino-1,2,5-thiadiazole 1,1-dioxide [Example 102]	~15 µmol/kg
3-{2-[(5-Dimethylaminomethyl-2-furyl)methylthio]ethyl- amino}-4-dinethylamino-1,2,5-thiadiazole 1,1-dioxide [Example 28]	1.39 (0.39-4.91) μmoles/kg
CNCc1ccc(CSCCNC2=NS(=O)(=O)N=C2NC)o1 [20 A]	1.15 (0.32-3.7) μmoles/kg
CNC1=NS(=O)(=O)N=C1NCCCOc1cccc(CN2CCCC2)c1 [144 a]	0.095 (0.033-0.30) μmoles/kg
CNC1=NS(=O)(=O)N=C1NCCCOc1cccc(CN2CCC(C)CC2)c1 [144 b]	0.025 (0.0087-0.065) μmoles/kg
CNC1=NS(=O)(=O)N=C1NCCCOc1cccc(CN2CCOCC2)c1 [144 d]	0.91 (0.36-3.2) μmoles/kg
Nc1n[s+]([O-])nc1NCCCOc1cccc(CN2CCCC2)c1 (stereo not shown) [145 a]	0.056 (0.021-0.18) μmoles/kg
CC1CCN(Cc2cccc(OCCCNc3n[s+]([O-])nc3N)c2)CC1 (stereo not shown) [145 b]	~0.06 µmol/kg
NC1=NS(=O)(=O)N=C1NCCCOc1cccc(CN2CCOCC2)c1 [146 d]	0.28 (0.066-1.21) μmoles/kg
